Measurements from patent publication US20180265515A1 (Genentech, Inc., priority 2015, published 2018).

Key:
[1] = system: JAK1-dependent STAT6 phosphorylation downstream of IL-13 stimulation in BEAS-2B human bronchial epithelial cells; assay: JAK1 pathway assay in BEAS-2B cells (IL-13 stimulated STAT6 phosphorylation, MSD); type: cell-based; conditions: read-out: P-STAT6 BEAS2B + IL13 IC50
In short: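 BEAS-2B human bronchial epithelial cells, plated the day before in complete growth medium, were preincubated with compound for 1 hr at 37° C (0.2% DMSO final), then stimulated with IL-13 at its EC90 for 15 min. STAT6 phosphorylation in lysates was read by MSD; EC50 was taken as 50% inhibition versus DMSO control.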

[2] = molecular target: T1, isolated recombinant JAK2 kinase domain (Homo sapiens, UniProt O60674); assay: JAK2 enzyme assay (Caliper LabChip, Ki); type: biochemical; conditions: 25 μM ATP
T1 construct: The activity of the isolated recombinant JAK1 and JAK2 kinase domain was measured
T1 sequence (O60674 849-1124 limits assumed): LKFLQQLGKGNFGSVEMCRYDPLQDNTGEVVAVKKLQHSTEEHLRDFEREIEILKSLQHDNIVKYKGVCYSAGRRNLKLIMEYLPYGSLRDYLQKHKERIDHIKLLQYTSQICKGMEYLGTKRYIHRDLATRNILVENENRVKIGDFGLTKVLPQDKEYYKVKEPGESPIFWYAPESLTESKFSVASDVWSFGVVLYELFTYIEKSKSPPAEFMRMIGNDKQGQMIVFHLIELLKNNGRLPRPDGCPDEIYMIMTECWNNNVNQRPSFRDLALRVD
In short: (§1)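 Ki values fitted with Morrison tight-binding equation adjusted for ATP-competitive inhibition, using product-to-total peptide ratio read by Caliper LabChip. Reactions: isolated JAK1 or JAK2 kinase domain with N-terminal 5-carboxyfluorescein JAK3-derived peptide, 22° C for 30 min, quenched by EDTA.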

[3] = molecular target: T2, isolated recombinant JAK1 kinase domain (Homo sapiens, UniProt P23458); assay: JAK1 enzyme assay (Caliper LabChip, Ki); type: biochemical; conditions: recombinant JAK1 kinase domain, 25 μM ATP
T2 construct: The activity of the isolated recombinant JAK1 and JAK2 kinase domain was measured
T2 sequence (P23458 875-1153 limits assumed): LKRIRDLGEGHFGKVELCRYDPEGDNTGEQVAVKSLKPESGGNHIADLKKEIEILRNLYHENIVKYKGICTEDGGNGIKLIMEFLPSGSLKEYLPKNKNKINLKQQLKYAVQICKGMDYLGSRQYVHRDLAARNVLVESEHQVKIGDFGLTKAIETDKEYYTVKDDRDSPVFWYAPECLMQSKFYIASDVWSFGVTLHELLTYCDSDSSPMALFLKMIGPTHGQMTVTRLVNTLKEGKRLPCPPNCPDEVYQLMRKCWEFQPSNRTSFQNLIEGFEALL
In short: as §1

Row | Structure (SMILES) | Ki [2] [nM] | Ki [3] [nM] | IC50 [1] [nM]
1 | CSc1ccc(OC(F)F)c(-c2nn(CC(=O)N3CCC(NCC4(C#N)CC4)CC3)cc2NC(=O)c2cnn3cccnc23)c1 [Example 41, N-[1-[2-[4-[(1-cyanocyclopropyl)methylamino]-1-piperidyl]-2-oxo-ethyl]-3-[2-(difluoromethoxy)-5-methylsulfanyl-phenyl]pyrazol-4-yl]pyrazolo[1,5-a]pyrimidine-3-carboxamide] | 0.45 | 0.27 | 20
2 | CSc1ccc(OC(F)F)c(-c2nn(CC(=O)N3CCN([C@H]4CC[C@@H](C#N)CC4)CC3)cc2NC(=O)c2cnn3cccnc23)c1 [Example 99, N-[1-[2-[4-(4-cyanocyclohexyl)piperazin-1-yl]-2-oxo-ethyl]-3-[2-(difluoromethoxy)-5-methylsulfanyl-phenyl]pyrazol-4-yl]pyrazolo[1,5-a]pyrimidine-3-carboxamide] | 0.56 | 0.38 | 9.5
3 | CN(C1CCN(C(=O)Cn2cc(NC(=O)c3cnn4cccnc34)c(-c3cc(SC4COC4)ccc3OC(F)F)n2)CC1)C1COC1 [Example 187, N-[3-[2-(difluoromethoxy)-5-(oxetan-3-ylsulfanyl)phenyl]-1-[2-[4-[methyl(oxetan-3-yl)amino]-1-piperidyl]-2-oxo-ethyl]pyrazol-4-yl]pyrazolo[1,5-a]pyrimidine-3-carboxamide] | 1.3 | 0.54 | 250
4 | CSc1ccc(OC(F)F)c(-c2nn(CC(=O)N3CCC(N4CCSCC4)CC3)cc2NC(=O)c2cnn3cccnc23)c1 [Example 27, N-[3-[2-(difluoromethoxy)-5-methylsulfanyl-phenyl]-1-[2-oxo-2-(4-thiomorpholino-1-piperidyl)ethyl]pyrazol-4-yl]pyrazolo[1,5-a]pyrimidine-3-carboxamide] | 0.32 | 0.23 | 5.1
5 | CSc1ccc(OC(F)F)c(-c2n[nH]cc2NC(=O)c2cnn3cccnc23)c1 [Example 1, N-(3-(2-(difluoromethoxy)-5-(methylthio)phenyl)-1H-pyrazol-4-yl)pyrazolo[1,5-a]pyrimidine-3-carboxamide] | 0.041 | 0.079 | 2.6
6 | CSc1ccc(OC(F)F)c(-c2nn(CCNC3COC3)cc2NC(=O)c2cnn3cccnc23)c1 [Example 36, N-[3-[2-(difluoromethoxy)-5-methylsulfanyl-phenyl]-1-[2-(oxetan-3-ylamino)ethyl]pyrazol-4-yl]pyrazolo[1,5-a]pyrimidine-3-carboxamide] | 0.29 | 0.36 | 9.8
7 | CSc1ccc(OC(F)F)c(-c2nn(CC(=O)N3CCC(N4CCC(C#N)C4)CC3)cc2NC(=O)c2cnn3cccnc23)c1 (stereo not drawn) [Example 32, N-[1-[2-[4-(3-cyanopyrrolidin-1-yl)-1-piperidyl]-2-oxo-ethyl]-3-[2-(difluoromethoxy)-5-methylsulfanyl-phenyl]pyrazol-4-yl]pyrazolo[1,5-a]pyrimidine-3-carboxamide] | 0.33 | 0.23 | 11
8 | CSc1ccc(OC(F)F)c(-c2nn(CC(=O)N3CCC(N4CCN(C)C(=O)C4)CC3)cc2NC(=O)c2cnn3cccnc23)c1 [Example 23, N-[3-[2-(difluoromethoxy)-5-methylsulfanyl-phenyl]-1-[2-[4-(4-methyl-3-oxo-piperazin-1-yl)-1-piperidyl]-2-oxo-ethyl]pyrazol-4-yl]pyrazolo[1,5-a]pyrimidine-3-carboxamide] | 0.31 | 0.24 | 61
9 | O=C(Nc1c[nH]nc1-c1cc(SC2CC2)ccc1OC(F)F)c1cnn2cccnc12 [Example 160, N-[3-[5-(cyclopropylsulfanyl)-2-(difluoromethoxy)phenyl]-1H-pyrazol-4-yl]pyrazolo[1,5-a]pyrimidine-3-carboxamide] | 0.056 | 0.098 | 7.3

Second part, led by results:

Row | Ki [2] [nM] | Ki [3] [nM] | Structure (SMILES) | IC50 [1] [nM]
10 | 1.2 | 0.4 | CC(C)Sc1ccc(OC(F)F)c(-c2nn(CC(=O)N3CCC(NCC(C)(C)C#N)CC3)cc2NC(=O)c2cnn3cccnc23)c1 [Example 120, N-[1-[2-[4-[(2-cyano-2-methyl-propyl)amino]-1-piperidyl]-2-oxo-ethyl]-3-[2-(difluoromethoxy)-5-isopropylsulfanyl-phenyl]pyrazol-4-yl]pyrazolo[1,5-a]pyrimidine-3-carboxamide] | 27
11 | 0.62 | 0.32 | CSc1ccc(OC(F)F)c(-c2nn(CC(=O)N3CCC(N(C)CC(=O)N4CCC4)CC3)cc2NC(=O)c2cnn3cccnc23)c1 [Example 22, N-[1-[2-[4-[[2-(azetidin-1-yl)-2-oxo-ethyl]-methyl-amino]-1-piperidyl]-2-oxo-ethyl]-3-[2-(difluoromethoxy)-5-methylsulfanyl-phenyl]pyrazol-4-yl]pyrazolo[1,5-a]pyrimidine-3-carboxamide] | 130
12 | 0.85 | 0.47 | CSc1ccc(OC(F)F)c(-c2nn(CC(=O)N3CCC(N(C)CCC(=O)N4CCC4)CC3)cc2NC(=O)c2cnn3cccnc23)c1 [Example 68, N-[1-[2-[4-[[3-(azetidin-1-yl)-3-oxo-propyl]-methyl-amino]-1-piperidyl]-2-oxo-ethyl]-3-[2-(difluoromethoxy)-5-methylsulfanyl-phenyl]pyrazol-4-yl]pyrazolo[1,5-a]pyrimidine-3-carboxamide] | 300
13 | 1.2 | 0.52 | CC(C)Sc1ccc(OC(F)F)c(-c2nn(CC(=O)N3CCC(N4CCO[C@H](CO)C4)CC3)cc2NC(=O)c2cnn3cccnc23)c1 [Example 149, N-[3-[2-(difluoromethoxy)-5-isopropylsulfanyl-phenyl]-1-[2-[4-[(2S)-2-(hydroxymethyl)morpholin-4-yl]-1-piperidyl]-2-oxo-ethyl]pyrazol-4-yl]pyrazolo[1,5-a]pyrimidine-3-carboxamide] | 50
14 | 1.3 | 0.7 | CCN1CCN(C(=O)Cn2cc(NC(=O)c3cnn4cccnc34)c(-c3cc(SC(C)C)ccc3OC(F)F)n2)CC1 [Example 121, N-[3-[2-(difluoromethoxy)-5-isopropylsulfanyl-phenyl]-1-[2-(4-ethylpiperazin-1-yl)-2-oxo-ethyl]pyrazol-4-yl]pyrazolo[1,5-a]pyrimidine-3-carboxamide] | 31
15 | 3.9 | 1.6 | CC(C)Sc1ccc(OC(F)F)c(-c2nn(CC(=O)N3CCC(CN4CCN(CC(=O)N(C)C)CC4)CC3)cc2NC(=O)c2cnn3cccnc23)c1 [Example 114, N-[3-[2-(difluoromethoxy)-5-isopropylsulfanyl-phenyl]-1-[2-[4-[[4-[2-(dimethylamino)-2-oxo-ethyl]piperazin-1-yl]methyl]-1-piperidyl]-2-oxo-ethyl]pyrazol-4-yl]pyrazolo[1,5-a]pyrimidine-3-carboxamide] | 55
16 | 0.44 | 0.3 | COC(=O)N1CCN(CC2CCN(C(=O)Cn3cc(NC(=O)c4cnn5cccnc45)c(-c4cc(SC)ccc4OC(F)F)n3)CC2)CC1 [Example 83, methyl 4-[[1-[2-[3-[2-(difluoromethoxy)-5-methylsulfanyl-phenyl]-4-(pyrazolo[1,5-a]pyrimidine-3-carbonylamino)pyrazol-1-yl]acetyl]-4-piperidyl]methyl]piperazine-1-carboxylate] | 10
